This experiment concerns the target CFTR-mediated chloride transport (Homo sapiens, UniProt P13569). The experiment is described as follows: Corrector Assay A - membrane potential dye assay (enteroid cells). The settings on record: for Corrector Assay A % activity: % of chloride transport of triple combination control (1 μM (14S)-dispiro macrocycle + 3 μM tezacaftor + 300 nM ivacaftor); for EC50: read-out: Corrector Assay A EC50, human intestinal enteroid cells, 18-24 h incubation, acute 10 μM forskolin + 300 nM ivacaftor.

Protocol: Base medium (ADF+++) consisted of Advanced DMEM/Ham's F12, 2 mM Glutamax, 10 mM HEPES, 1 μg/ml penicillin/streptomycin.
Intestinal enteroid maintenance medium (IEMM) consisted of ADF+++, 1×B27 supplement, 1×N2 supplement, 1.25 mM N-acetyl cysteine, 10 mM Nicotinamide, 50 ng/mL hEGF, 10 nM Gastrin, 1 μg/mL hR-spondin-1, 100 ng/mL hNoggin, TGF-b type 1 inhibitor A-83-01, 100 μg/mL Primocin, 10 μM P38 MAPK inhibitor SB202190.
Bath 1 Buffer consisted of 1 mM MgCl2, 160 mM NaCl, 4.5 mM KCl, 10 mM HEPES, 10 mM Glucose, 2 mM CaCl2).
Chloride Free Buffer consisted of 1 mM Magnesium Gluconate, 2 mM Calcium Gluconate, 4.5 mM Potassium Gluconate, 160 mM Sodium Gluconate, 10 mM HEPES, 10 mM Glucose.
Bath 1 Dye Solution consisted of Bath 1 Buffer, 0.04% Pluronic F127, 20 μM Methyl Oxonol, 30 μM CaCCinh-A01, 30 μM Chicago Sky Blue.
Chloride Free Dye Solution consisted of Chloride Free Buffer, 0.04% Pluronic F127, 20 μM Methyl Oxonol, 30 μM CaCCinh-A01, 30 μM Chicago Sky Blue.
Chloride Free Dye Stimulation Solution consisted of Chloride Free Dye Solution, 10 μM forskolin, 100 μM IBMX, and 300 nM Ivacaftor.
Cells were recovered in cell recovery solution, collected by centrifugation at 650 rpm for 5 min at 4° C., resuspended in TryPLE and incubated for 5 min at 37° C. Cells were then collected by centrifugation at 650 rpm for 5 min at 4° C. and resuspended in IEMM containing 10 μM ROCK inhibitor (RI). The cell suspension was passed through a 40 μm cell strainer and resuspended at 1×10^6 cells/mL in IEMM containing 10 μM RI. Cells were seeded at 5000 cells/well into multi-well plates and incubated for overnight at 37° C., 95% humidity and 5% CO2 prior to assay.
Briefly, cells were washed 5 times in Bath 1 Buffer. Bath 1 Dye Solution was added and the cells were incubated for 25 min at room temperature. Following dye incubation, cells were washed 3 times in Chloride Free Dye Solution. Chloride transport was initiated by addition of Chloride Free Dye Stimulation Solution and the fluorescence signal was read for 15 min. The CFTR-mediated chloride transport for each condition was determined from the AUC of the fluorescence response to acute forskolin and 300 nM N-[2,4-bis(1,1-dimethylethyl)-5-hydroxyphenyl]-1,4-dihydro-4-oxoquinoline-3-carboxamide stimulation. Chloride transport was then expressed as a percentage of the chloride transport following treatment with 1 μM (14S)-8-[3-(2-{Dispiro[2.0.2.1]heptan-7-yl}ethoxy)-1H-pyrazol-1-yl]-12,12-dimethyl-2λ^6-thia-3,9,11,18,23-pentaazatetracyclo[17.3.1.111,14.05,10]tetracosa-1(22),5,7,9,19(23),20-hexaene-2,2,4-trione, 3 μM (R)-1-(2,2-difluorobenzo[d][1,3]dioxol-5-yl)-N-(1-(2,3-dihydroxypropyl)-6-fluoro-2-(1-hydroxy-2-methylpropan-2-yl)-1H-indol-5-yl)cyclopropanecarboxamide and 300 nM acute N-[2,4-bis(1,1-dimethylethyl)-5-hydroxyphenyl]-1,4-dihydro-4-oxoquinoline-3-carboxamide triple combination control (% Activity).

On to `CC(C)CN1c2cccc(n2)S(=O)(=O)NC(=O)c2ccc(C(C)(C)C)nc2N2C[C@@H](CCC1c1ccccc1)CC2(C)C` (single isomer, unassigned) [Compound 270], for which the “Corrector Assay A % activity” value is on record as “+ (+ is <30%)”.

For `CC(C)(C)c1ccc2c(n1)N1C[C@@H](CCC3CCCC(=O)N3c3cccc(n3)S(=O)(=O)NC2=O)CC1(C)C` (stereo partly drawn) [Compound 14, (10S)-16-tert-Butyl-12,12-dimethyl-22λ^6-thia-2,13,15,21,27-pentaazapentacyclo[21.3.1.110,13.02,7.014,19]octacosa-1(26),14(19),15,17,23(27),24-hexaene-3,20,22,22-tetrone], the “Corrector Assay A % activity” value is listed as “++ (++ is 30-60%)” and the EC50 was under 1000 nM. For `CC(C)(C)C#Cc1ccc2c(n1)N1C[C@@H](CC[C@H](c3ccccn3)Nc3cccc(n3)S(=O)(=O)NC2=O)CC1(C)C` [Compound 177] the same measures were “+++ (+++ is >60%)” and under 1000 nM.

For `CC(C)(C)c1ccc2c(n1)N1C[C@@H](CCC(c3ccc(CN)cn3)Nc3cccc(n3)S(=O)(=O)NC2=O)CC1(C)C` (some centres unmarked) [Compound 196], the “Corrector Assay A % activity” value was “+++ (+++ is >60%)” and the EC50 was under 1000 nM. For `COC(=O)C1CC[C@@H]2CN(c3nc(C(C)(C)C)ccc3C(=O)NS(=O)(=O)c3cccc(n3)N1)C(C)(C)C2` (single isomer, unassigned) [Compound 225] the same measures were “++ (++ is 30-60%)” and under 1000 nM. For `CN1CCN(c2cccc([C@@H]3CC[C@@H]4CN(c5nc(C(C)(C)C)ccc5C(=O)NS(=O)(=O)c5cccc(n5)N3)C(C)(C)C4)n2)CC1` [Compound 194], the “Corrector Assay A % activity” value is on record as “++ (++ is 30-60%)” and the EC50 was under 1000 nM.

For `CC(C)(C)c1ccc2c(n1)N1C[C@@H](CC[C@@H](c3cccc(C(F)(F)F)n3)Nc3cccc(n3)S(=O)(=O)NC2=O)CC1(C)C` (single isomer, unassigned) [Compound 95], the “Corrector Assay A % activity” value is given as “++ (++ is 30-60%)” and the EC50 was under 1000 nM. In the same order, the values of `CC(C)(C)c1ccc2c(n1)N1C[C@@H](CC[C@H](c3cccc(-c4cn[nH]c4)n3)Nc3cccc(n3)S(=O)(=O)NC2=O)CC1(C)C` [Compound 67] are “+++ (+++ is >60%)” and under 1000 nM.

With `CC(C)(C)c1ccc2c(n1)N1C[C@@H](CC[C@@H](c3cccc(CCC#N)n3)Nc3cccc(n3)S(=O)(=O)NC2=O)CC1(C)C` [Compound 139], the “Corrector Assay A % activity” value is “+ (+ is <30%)” and the EC50 is over 3000 nM. For `CC(C)(C)c1ccc2c(n1)N1C[C@@H](CCC(c3ccccc3)n3ccc(n3)S(=O)(=O)NC2=O)CC1(C)C` (single isomer, unassigned) [Compound 275] the same measures were “++ (++ is 30-60%)” and under 1000 nM. In the same order, the values of `CC(C)C1CC[C@@H]2CN(c3nc(-n4ccc(OCCC5C6(CC6)C56CC6)n4)ccc3C(=O)NS(=O)(=O)c3cccc(n3)N1)C(C)(C)C2` (single isomer, unassigned) [Compound 353] are “+++ (+++ is >60%)” and under 1000 nM. In the same order, the values of `CC(C)C1CC[C@@H]2CN(c3nc(C(C)(C)C)ccc3C(=O)NS(=O)(=O)c3cccc(n3)N1)C(C)(C)C2` (single isomer, unassigned) [Compound 286] are “+++ (+++ is >60%)” and under 1000 nM. On to `COCCN1CCC2(CC1)CC(NC(=O)[C@@H]1CC[C@@H]3CN(c4nc(C(C)(C)C)ccc4C(=O)NS(=O)(=O)c4cccc(n4)N1)C(C)(C)C3)C2` [Compound 221], for which the “Corrector Assay A % activity” value is recorded as “+ (+ is <30%)” and the EC50 was over 3000 nM. For the compound `CC(C)(C)c1ccc2c(n1)N1C[C@@H](CCC(c3cc(Br)ccn3)Nc3cccc(n3)S(=O)(=O)NC2=O)CC1(C)C` (single isomer, unassigned) [Compound 46], the “Corrector Assay A % activity” value is listed as “+++ (+++ is >60%)” and the EC50 is under 1000 nM.

In the case of `CC1(C)CCC(c2ccc3c(n2)N2C[C@@H](CC[C@H](c4ccccn4)Nc4cccc(n4)S(=O)(=O)NC3=O)CC2(C)C)CC1` [Compound 326], the “Corrector Assay A % activity” value is reported as “+++ (+++ is >60%)” and the EC50 was under 1000 nM. In the same order, the values of `CC(C)(C)c1ccc2c(n1)N1C[C@@H](CCC(c3cc(Br)ccn3)Nc3cccc(n3)S(=O)(=O)NC2=O)CC1(C)C` (single isomer, unassigned) [Compound 47] are “++ (++ is 30-60%)” and under 1000 nM. As for `CC(C)(C)c1ccc2c(n1)N1C[C@@H](CC[C@H](c3cccc(CN)n3)Nc3cccc(n3)S(=O)(=O)NC2=O)CC1(C)C` [Compound 203, (14S,17R)-17-[6-(aminomethyl)pyridin-2-yl]-8-tert-butyl-12,12-dimethyl-2λ^6-thia-3,9,11,18,23-pentaazatetracyclo[17.3.1.111,14.05,10]tetracosa-1(22),5,7,9,19(23),20-hexaene-2,2,4-trione], the “Corrector Assay A % activity” value is reported as “+++ (+++ is >60%)” and the EC50 is under 1000 nM.

Regarding `CC(C)(C)c1ccc2c(n1)N1C[C@@H](CCC(c3ccc(C4CCOCC4)cn3)Nc3cccc(n3)S(=O)(=O)NC2=O)CC1(C)C` (single isomer, unassigned) [Compound 155], the “Corrector Assay A % activity” value is listed as “+++ (+++ is >60%)” and the EC50 is under 1000 nM. For `CN1CCN(c2ccc3c(n2)N2C[C@@H](CC[C@H](c4ccccn4)Nc4cccc(n4)S(=O)(=O)NC3=O)CC2(C)C)C1=O` [Compound 333] the same measures were “+++ (+++ is >60%)” and 1000 to 3000 nM. In the same order, the values of `CC(C)(C)c1ccc2c(n1)N1C[C@@H](CCC(C(=O)O)Nc3cccc(n3)S(=O)(=O)NC2=O)CC1(C)C` (single isomer, unassigned) [Compound 230] are “+++ (+++ is >60%)” and over 3000 nM.

As to `CC(C)(C)c1ccc2c(n1)N1C[C@@H](CCC(c3cc(CCCN)ccn3)Nc3cccc(n3)S(=O)(=O)NC2=O)CC1(C)C` (single isomer, unassigned) [Compound 110], the “Corrector Assay A % activity” value was “+ (+ is <30%)” and the EC50 is over 3000 nM. Consider `CC(C)(C)c1ccc2c(n1)N1C[C@@H](CCC(CCC(C3CC3)C3CC3)Nc3cccc(n3)S(=O)(=O)NC2=O)CC1(C)C` (single isomer, unassigned) [Compound 52], for which the “Corrector Assay A % activity” value is reported as “++ (++ is 30-60%)” and the EC50 is under 1000 nM. As to `CC(C)(C)COc1cccc(-c2ccc3c(n2)N2C[C@@H](CC[C@H](c4ccccn4)Nc4cccc(n4)S(=O)(=O)NC3=O)CC2(C)C)n1` [Compound 312], the “Corrector Assay A % activity” value is recorded as “+++ (+++ is >60%)” and the concentration for a half-maximal effect (EC50) was under 1000 nM. Take `CCOc1cccc(-c2ccc3c(n2)N2C[C@@H](CC[C@H](c4ccccn4)Nc4cccc(n4)S(=O)(=O)NC3=O)CC2(C)C)n1` [Compound 316]: the “Corrector Assay A % activity” value is “+++ (+++ is >60%)” and the EC50 was under 1000 nM.

The values above are taken from patent publication US20220313698A1, “MODULATORS OF CYSTIC FIBROSIS TRANSMEMBRANE CONDUCTANCE REGULATOR” (Vertex Pharmaceuticals Incorporated, priority 2019, published 2022).
